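Cultured in 96-well plates, cells were exposed to test compound for 48 hours across five concentrations. At the GI50, growth is halved. TGI: total growth inhibition.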
Key:
Assay in all cases: NCI-60 cell line screen, 48 h
SW-620 colon = system: SW-620 colon
LOX IMVI melanoma = system: LOX IMVI melanoma
SK-OV-3 ovarian = system: SK-OV-3 ovarian
HL-60(TB) leukemia = system: HL-60(TB) leukemia
SF-268 CNS = system: SF-268 CNS
SK-MEL-28 melanoma = system: SK-MEL-28 melanoma
CAKI-1 renal = system: CAKI-1 renal
EKVX NSCLC = system: EKVX NSCLC
MOLT-4 leukemia = system: MOLT-4 leukemia
HCC-2998 colon = system: HCC-2998 colon

## COC(=O)C(=O)C(C(=O)C(=O)Nc1ccc(Cl)cc1Cl)c1nc2ccc(Cl)cc2[nH]c1=O (configuration not stated)
SW-620 colon
  TGI: > 100 µM
LOX IMVI melanoma
  TGI: > 100 µM
SK-OV-3 ovarian
  TGI: > 100 µM
HL-60(TB) leukemia
  TGI: > 100 µM
SF-268 CNS
  TGI: > 100 µM
SK-MEL-28 melanoma
  TGI: > 100 µM
CAKI-1 renal
  TGI: > 100 µM
EKVX NSCLC
  TGI: > 100 µM
MOLT-4 leukemia
  TGI: > 100 µM
HCC-2998 colon
  TGI: > 100 µM

## CC(C)CCC[C@@H](C)C1CCC2[C@@H]3CC=C4C[C@@H](OC(=O)CCC(=O)NCC[N+](C)(C)CCCS(=O)(=O)[O-])CC[C@]4(C)C3CC[C@@]21C (some centres not stated)
SW-620 colon
  TGI: 33.8 µM
LOX IMVI melanoma
  TGI: 33.1 µM
SK-OV-3 ovarian
  TGI: > 100 µM
HL-60(TB) leukemia
  TGI: 36.6 µM
SF-268 CNS
  TGI: 39.7 µM
SK-MEL-28 melanoma
  TGI: 32.9 µM
CAKI-1 renal
  TGI: > 100 µM
EKVX NSCLC
  TGI: 79.5 µM
MOLT-4 leukemia
  TGI: 39.7 µM
HCC-2998 colon
  TGI: 37.5 µM

## O=C(N/C(=C\c1cc(Cl)ccc1Cl)c1nc2ccccc2[nH]1)c1ccccc1
SW-620 colon
  TGI: 52.8 µM
SK-OV-3 ovarian
  TGI: > 100 µM
HL-60(TB) leukemia
  TGI: 67 µM
SF-268 CNS
  TGI: > 100 µM
SK-MEL-28 melanoma
  TGI: > 100 µM
CAKI-1 renal
  TGI: > 100 µM
EKVX NSCLC
  TGI: > 100 µM
MOLT-4 leukemia
  TGI: 63.8 µM
HCC-2998 colon
  TGI: 37.8 µM

## O=C(NCCc1ccccc1)C(c1csc2ccccc12)N(C(=O)CCl)c1ccc(-c2cnco2)cc1 (configuration not stated)
SW-620 colon
  GI50: 0.391 µM
  TGI: 1.29 µM
LOX IMVI melanoma
  GI50: < 0.01 µM
SK-OV-3 ovarian
  GI50: 1.25 µM
  TGI: 2.69 µM
HL-60(TB) leukemia
  GI50: 0.762 µM
  TGI: 2.8 µM
SF-268 CNS
  GI50: 0.362 µM
  TGI: 0.958 µM
SK-MEL-28 melanoma
  GI50: 1.69 µM
  TGI: 3.12 µM
CAKI-1 renal
  GI50: 0.096 µM
  TGI: 0.487 µM
EKVX NSCLC
  GI50: 0.543 µM
  TGI: 2.3 µM
MOLT-4 leukemia
  GI50: 0.209 µM
  TGI: 0.678 µM
HCC-2998 colon
  GI50: 1.69 µM
  TGI: 3.22 µM

## C[N+](C)(C)CC(=O)NC(=O)N/N=C\C(CC#N)CN(Cc1ccccc1)Cc1ccccc1 (configuration not stated)
SW-620 colon
  TGI: > 100 µM
LOX IMVI melanoma
  TGI: > 100 µM
SK-OV-3 ovarian
  TGI: > 100 µM
HL-60(TB) leukemia
  TGI: > 100 µM
SF-268 CNS
  TGI: > 100 µM
SK-MEL-28 melanoma
  TGI: > 100 µM
CAKI-1 renal
  TGI: > 100 µM
EKVX NSCLC
  TGI: > 100 µM
MOLT-4 leukemia
  TGI: > 100 µM
HCC-2998 colon
  TGI: > 100 µM

## COc1ccc(/C=N\N2C(=O)Cc3ccccc32)cc1
SW-620 colon
  TGI: > 100 µM
LOX IMVI melanoma
  TGI: > 100 µM
SK-OV-3 ovarian
  TGI: > 100 µM
HL-60(TB) leukemia
  TGI: > 100 µM
SF-268 CNS
  TGI: > 100 µM
SK-MEL-28 melanoma
  TGI: > 100 µM
CAKI-1 renal
  TGI: > 100 µM
EKVX NSCLC
  TGI: > 100 µM
MOLT-4 leukemia
  TGI: > 100 µM
HCC-2998 colon
  TGI: > 100 µM

## COC(=O)C1=C(SC)SC2(C(=O)OC)C3C=C(C)C4C(N13)C42C(=O)OC (configuration not stated)
SW-620 colon
  TGI: > 100 µM
LOX IMVI melanoma
  TGI: > 100 µM
SK-OV-3 ovarian
  TGI: > 100 µM
HL-60(TB) leukemia
  TGI: > 100 µM
SF-268 CNS
  TGI: > 100 µM
SK-MEL-28 melanoma
  TGI: > 100 µM
CAKI-1 renal
  TGI: > 100 µM
EKVX NSCLC
  TGI: > 100 µM
MOLT-4 leukemia
  TGI: > 100 µM
HCC-2998 colon
  TGI: > 100 µM

## COc1cccc(-n2cnc3c(N/N=C/c4ccncc4)ncnc32)c1
SW-620 colon
  GI50: > 25 µM
  TGI: > 25 µM
LOX IMVI melanoma
  GI50: 12.8 µM
  TGI: > 25 µM
SK-OV-3 ovarian
  GI50: 7.88 µM
  TGI: > 23.7 µM
HL-60(TB) leukemia
  GI50: > 25 µM
  TGI: > 25 µM
SF-268 CNS
  GI50: 24.5 µM
  TGI: > 25 µM
SK-MEL-28 melanoma
  GI50: 13 µM
  TGI: > 25 µM
CAKI-1 renal
  GI50: 7.34 µM
  TGI: > 25 µM
EKVX NSCLC
  GI50: > 25 µM
  TGI: > 25 µM
MOLT-4 leukemia
  GI50: > 25 µM
  TGI: > 25 µM
HCC-2998 colon
  GI50: > 25 µM
  TGI: > 25 µM

## CC1=NN(C(=O)CC(=O)Nc2ccccc2)C(=O)C1N=Nc1ccc(S(N)(=O)=O)cc1 (configuration not stated)
SW-620 colon
  TGI: > 100 µM
LOX IMVI melanoma
  TGI: > 100 µM
SK-OV-3 ovarian
  TGI: > 100 µM
HL-60(TB) leukemia
  TGI: > 100 µM
SF-268 CNS
  TGI: > 100 µM
SK-MEL-28 melanoma
  TGI: > 100 µM
CAKI-1 renal
  TGI: > 100 µM
EKVX NSCLC
  TGI: > 100 µM
MOLT-4 leukemia
  TGI: > 100 µM
HCC-2998 colon
  TGI: > 100 µM

## Cc1cc(C)c(-c2noc(-c3ccc(Cl)cc3)c2C2=NCCN2)c(C)c1
SW-620 colon
  TGI: > 100 µM
LOX IMVI melanoma
  TGI: 42.9 µM
SK-OV-3 ovarian
  TGI: > 100 µM
HL-60(TB) leukemia
  TGI: 46.4 µM
SF-268 CNS
  TGI: 37.4 µM
SK-MEL-28 melanoma
  TGI: 36.9 µM
CAKI-1 renal
  TGI: > 100 µM
EKVX NSCLC
  TGI: 71.8 µM
MOLT-4 leukemia
  TGI: 41.3 µM
HCC-2998 colon
  TGI: 36 µM

## NS(=O)(=O)OC[C@H]1O[C@@H](n2cnc3c(N[C@H]4CCc5ccccc54)ncnc32)[C@H](O)[C@@H]1O
SW-620 colon
  GI50: 0.245 µM
  TGI: 5.82 µM
LOX IMVI melanoma
  GI50: 0.0209 µM
  TGI: 0.0572 µM
SK-OV-3 ovarian
  GI50: 0.234 µM
  TGI: 0.644 µM
HL-60(TB) leukemia
  GI50: 0.0482 µM
  TGI: 1.44 µM
SF-268 CNS
  GI50: 0.122 µM
  TGI: 0.449 µM
SK-MEL-28 melanoma
  GI50: 0.047 µM
  TGI: 0.276 µM
CAKI-1 renal
  GI50: 0.054 µM
  TGI: 0.181 µM
EKVX NSCLC
  GI50: 0.349 µM
  TGI: 9.07 µM
MOLT-4 leukemia
  GI50: 0.22 µM
  TGI: 1.99 µM
HCC-2998 colon
  GI50: 0.157 µM
  TGI: 0.331 µM

## COc1cc(C2C3=C(COC3=O)N(CCO)c3cc4c(cc32)OCCO4)cc(OC)c1O (configuration not stated)
SW-620 colon
  GI50: 1.83 µM
  TGI: > 50 µM
LOX IMVI melanoma
  GI50: 2.49 µM
  TGI: > 50 µM
SK-OV-3 ovarian
  GI50: 2.29 µM
  TGI: > 50 µM
HL-60(TB) leukemia
  GI50: 1.52 µM
  TGI: > 13.5 µM
SF-268 CNS
  GI50: 3.38 µM
  TGI: > 50 µM
SK-MEL-28 melanoma
  GI50: 1.15 µM
  TGI: > 50 µM
CAKI-1 renal
  GI50: 2.84 µM
  TGI: > 45 µM
EKVX NSCLC
  GI50: 3.5 µM
  TGI: > 50 µM
MOLT-4 leukemia
  GI50: 3.68 µM
  TGI: > 50 µM
HCC-2998 colon
  GI50: 2.04 µM
  TGI: 19 µM

## CC(=O)NC1=NC(=O)/C(=C/c2ccc(Cl)cc2Cl)N1C
SW-620 colon
  TGI: > 100 µM
LOX IMVI melanoma
  TGI: > 100 µM
SK-OV-3 ovarian
  TGI: > 100 µM
HL-60(TB) leukemia
  TGI: 7.37 µM
SF-268 CNS
  TGI: > 100 µM
CAKI-1 renal
  TGI: > 100 µM
EKVX NSCLC
  TGI: 50.7 µM
MOLT-4 leukemia
  TGI: 81.4 µM
HCC-2998 colon
  TGI: > 100 µM

## CC(CC(C)[C@H]1CCC2[C@H]3C(CC[C@@]21C)[C@@]1(C)CCC(O)C[C@H]1C[C@@H]3O)C(=O)O (some centres not stated)
SW-620 colon
  TGI: > 100 µM
LOX IMVI melanoma
  TGI: > 100 µM
HL-60(TB) leukemia
  TGI: > 100 µM
SF-268 CNS
  TGI: > 100 µM
SK-MEL-28 melanoma
  TGI: > 100 µM
CAKI-1 renal
  TGI: > 100 µM
EKVX NSCLC
  TGI: > 100 µM
MOLT-4 leukemia
  TGI: > 100 µM
HCC-2998 colon
  TGI: > 100 µM

## S=c1sc2ccccc2n1CN1CCN(Cc2ccccc2)CC1
SW-620 colon
  TGI: > 100 µM
LOX IMVI melanoma
  TGI: > 100 µM
SK-OV-3 ovarian
  TGI: > 100 µM
HL-60(TB) leukemia
  TGI: > 100 µM
SF-268 CNS
  TGI: > 100 µM
CAKI-1 renal
  TGI: > 100 µM
EKVX NSCLC
  TGI: > 100 µM
MOLT-4 leukemia
  TGI: > 100 µM
HCC-2998 colon
  TGI: > 100 µM

## CCCCC#Cc1c(I)n(C2OC(CO[Si](C)(C)C(C)(C)C)C3OC(C)(C)OC32)c(=O)[nH]c1=O (configuration not stated)
SW-620 colon
  GI50: 1.8 µM
  TGI: 4.15 µM
LOX IMVI melanoma
  GI50: 3.39 µM
  TGI: > 100 µM
HL-60(TB) leukemia
  GI50: 1.52 µM
  TGI: 4.14 µM
SF-268 CNS
  GI50: 10.3 µM
  TGI: 22.4 µM
SK-MEL-28 melanoma
  GI50: 1.84 µM
  TGI: 4.3 µM
CAKI-1 renal
  GI50: 12.5 µM
  TGI: 25.3 µM
EKVX NSCLC
  GI50: 15.3 µM
  TGI: 28.7 µM
MOLT-4 leukemia
  GI50: 1.77 µM
  TGI: 4.34 µM
HCC-2998 colon
  GI50: 2.8 µM
  TGI: 16.5 µM

## O=C1CCc2cc([N+](=O)[O-])ccc2O1
SW-620 colon
  TGI: > 100 µM
LOX IMVI melanoma
  TGI: > 100 µM
HL-60(TB) leukemia
  TGI: > 100 µM
SF-268 CNS
  TGI: > 100 µM
SK-MEL-28 melanoma
  TGI: > 100 µM
CAKI-1 renal
  TGI: > 100 µM
EKVX NSCLC
  TGI: > 100 µM
MOLT-4 leukemia
  TGI: > 100 µM
HCC-2998 colon
  TGI: > 100 µM

Source: PubChem BioAssay (NCI)
